Values of other authors as cited in patent US20160069160A1, “TREATMENT OF MICROBIAL-INFLUENCED CORROSION” (TRICAN WELL SERVICE LTD., priority 2014, published 2016).

Test system: microbes

Row | Compound | effect of pH on microbial control | efficacy at low pH (below pH 5) | concentration required to be effective at pH 7 relative to pH 9 (pH 7 vs pH 9)
1 | tetrakis(hydroxymethyl)phosphonium sulfate [THPS] | unaffected by pH |  | 
2 | O=CCCCC=O [glutaraldehyde] |  | significantly reduced | 4 to 6 times higher
